Measured values published in ChEMBL document CHEMBL4823244, “Synthesis of norisoboldine derivatives and bioactivity assay for inducing the generation of regulatory T cells” (Bioorg Med Chem Lett, 2021).

System: EL4
Assay: Cytotoxicity against mouse EL4 cells assessed as effect on cell viability at 1 to 10 uM measured after 72 hrs by MTT assay
Assay type: cell-based
Settings: el4, 72 h, dose 1-10 µM

| SMILES | Activity |
| --- | --- |
| COc1cccc(CN2CCc3cc(OC)c(O)c4c3C2Cc2cc(O)c(OC)cc2-4)c1 (stereo unspecified) | Non-Toxic |
| COc1cc2c(cc1O)CC1c3c(cc(OC)c(O)c3-2)CCN1Cc1ccc(C)cc1 (stereo unspecified) | Non-Toxic |
| COc1cc2c(cc1O)CC1c3c(cc(OC)c(O)c3-2)CCN1C(=O)c1ccc(Br)cc1 (stereo unspecified) | Non-Toxic |
| COc1cc2c(cc1O)CC1c3c(cc(OC)c(O)c3-2)CCN1C(=O)c1ccc([N+](=O)[O-])cc1 (stereo unspecified) | Non-Toxic |
| COc1cc2c(cc1O)CC1c3c(cc(OC)c(O)c3-2)CCN1C(=O)c1ccc(C)cc1 (stereo unspecified) | Non-Toxic |
| COc1cc2c(cc1O)CC1c3c(cc(OC)c(O)c3-2)CCN1Cc1ccc([N+](=O)[O-])cc1 (stereo unspecified) | Non-Toxic |
| COc1cc2c(cc1O)CC1c3c(cc(OC)c(O)c3-2)CCN1C(=O)c1ccc(Cl)cc1 (stereo unspecified) | Non-Toxic |
| COc1cc2c(cc1O)CC1c3c(cc(OC)c(O)c3-2)CCN1C(=O)c1cc(OC)c(OC)c(OC)c1 (stereo unspecified) | Non-Toxic |
| COc1cc(CN2CCc3cc(OC)c(O)c4c3C2Cc2cc(O)c(OC)cc2-4)cc(OC)c1 (stereo unspecified) | Non-Toxic |
| COc1cc2c(cc1O)CC1c3c(cc(OC)c(O)c3-2)CCN1C(=O)c1ccccc1 (stereo unspecified) | Non-Toxic |
| COc1cc2c(cc1O)CC1c3c(cc(OC)c(O)c3-2)CCN1Cc1ccc(C#N)cc1 (stereo unspecified) | Non-Toxic |
